What was measured:
Assay type in all cases: in vivo
Tetranychus kanzawai = assay: B.10 Red Spider Mite, cowpea bean spray test; conditions: 72 hours after treatment, read-out: mortality in comparison with untreated controls
Procedure: The active compound was dissolved at the desired concentration in a mixture of 1:1 (vol:vol) distilled water:acetone. Add surfactant (Kinetic) was added at a rate of 0.01% (vol/vol). The test solution was prepared at the day of use. Potted cowpea beans of 4-5 days of age were cleaned with tap water and sprayed with I-2 ml of the test solution using air driven DeVilbiss® hand atomizer at 20-30 psi (≈1,38 to 2,07 bar). The treated plants were allowed to air dry and afterwards inoculated with 30 or more mites by clipping a cassava leaf section from rearing population. Treated plants were placed inside a holding room at about 25-26° C. and about 65-70% relative humidity. Percent mortality was assessed 72 hours after treatment.

Myzus persicae = assay: B.3 Green Peach Aphid (mixed life stages), systemic artificial diet test; conditions: 72 h, treated aphid diet, 3 days, read-out: mortality in comparison with untreated controls
Excerpt: For evaluating control of Green Peach Aphid through systemic means the test unit consisted of 96-well-microtiter plates containing liquid artificial diet under an artificial membrane. The compounds were formulated using a solution containing 75% v/v water and 25% v/v DMSO. Different concentrations of formulated compounds were pipetted into the aphid diet, using a custom-built pipette, at two replications. After application, 5-8 adult aphids were placed on the artificial membrane inside the microtiter plate wells. The aphids were then allowed to suck on the treated aphid diet and incubated at about 23±1° C. and about 50±5% relative humidity for 3 days. Aphid mortality and fecundity was then visually assessed.

Plutella xylostella = assay: B.6 Diamond Back Moth, cabbage leaf disc dip test; conditions: foliar, 3rd instar larvae, 72 hours after treatment, read-out: mortality in comparison with untreated controls
Procedure: The active compound was dissolved at the desired concentration in a mixture of 1:1 (vol:vol) distilled water:acetone. Surfactant (Kinetic) was added at a rate of 0.01% (vol/vol). The test solution was prepared at the day of use. Cabbage leaf discs (60 mm in diameter) were dipped in test solution and air-dried. Treated leaves were placed in petri dishes lined with moistened filter paper and inoculated with ten 3rd instar larvae. Mortality was recorded 72 hours after treatment. Feeding damages were also recorded using a scale of 0-100%.

Heliothis virescens = assay: B.4 Tobacco Budworm, microtiter plate diet test; conditions: 120 h, egg and larval mortality, 5 days, read-out: mortality in comparison with untreated controls
Procedure: For evaluating control of Tobacco Budworm, the test unit consisted of 96-well-microtiter plates containing an insect diet and 15-25 H. virescens eggs. The compounds were formulated using a solution containing 75% v/v water and 25% v/v DMSO. Different concentrations of formulated compounds were sprayed onto the insect diet at 10 μl, using a custom-built micro atomizer, at two replications. After application, microtiter plates were incubated at about 28±1° C. and about 80±5% relative humidity for 5 days. Egg and larval mortality was then visually assessed.

Anthonomus grandis = assay: B.1 Boll weevil (Anthonomus grandis), 96-well microtiter plate diet test; conditions: 120 h, egg and larval mortality, 5 days, read-out: mortality in comparison with untreated controls
Procedure: For evaluating control of boll weevil, the test unit consisted of 96-well-microtiter plates containing an insect diet and 5-10 A. grandis eggs.
The compounds were formulated using a solution containing 75% v/v water and 25% v/v DMSO. Different concentrations of formulated compounds were sprayed onto the insect diet at 5 μl, using a custom-built micro atomizer, at two replications.
After application, microtiter plates were incubated at about 25±1° C. and about 75±5% relative humidity for 5 days. Egg and larval mortality were then visually assessed.

Dichromothrips corbetti = assay: B.7 Orchid Thrips, floral-immersion test; conditions: adult thrips, 72 hours after treatment, read-out: mortality in comparison with untreated controls
Procedure: Dichromothrips corbetti adults used for bioassay were obtained from a colony maintained continuously under laboratory conditions. For testing purposes, the test compound was diluted in a 1:1 mixture of acetone:water (vol:vol), plus Kinetic at a rate of 0.01% v/v.
Thrips potency of each compound was evaluated by using a floral-immersion technique. Each orchid petal was dipped into treatment solution and allowed to dry in Petri dishes. Treated petals were placed into individual re-sealable plastic along with about 20 adult thrips. All test arenas were held under dark condition and a temperature of about 28° C. for duration of the assay. The percent mortality was recorded 72 hours after treatment.

Bemisia argentifolii = assay: B.12 Silverleaf Whitefly (adults), cotton plant spray test; conditions: 72 h, 3 days after treatment, read-out: mortality in comparison with untreated controls
Procedure: The active compounds were formulated by a Tecan liquid handler in 100% cyclohexanone as a 10,000-ppm solution supplied in tubes. The 10,000-ppm solution was serially diluted in 100% cyclohexanone to make interim solutions. These served as stock solutions for which final dilutions were made by the Tecan in 50% acetone:50% water (v/v) into 5 or 10 ml glass vials. A nonionic surfactant (Kinetic®) was included in the solution at a volume of 0.01% (v/v). The vials were then inserted into an automated electrostatic sprayer equipped with an atomizing nozzle for application to plants/insects. Cotton plants at the cotyledon stage (one plant per pot) were sprayed by an automated electrostatic plant sprayer equipped with an atomizing spray nozzle. The plants were dried in the sprayer fume hood and then removed from the sprayer. Each pot was placed into a plastic cup and about 10 to 12 whitefly adults (approximately 3-5 days old) were introduced. The insects were collected using an aspirator and a nontoxic Tygon® tubing connected to a barrier pipette tip. The tip, containing the collected insects, was then gently inserted into the soil containing the treated plant, allowing insects to crawl out of the tip to reach the foliage for feeding. Cups were covered with a reusable screened lid. Test plants were maintained in a growth room at about 25° C. and about 20-40% relative humidity for 3 days, avoiding direct exposure to fluorescent light (14:10 light:dark photoperiod) to prevent trapping of heat inside the cup. Mortality was assessed 3 days after treatment, compared to untreated control plants.

Nephotettix virescens = assay: B.9 Rice Green Leafhopper, rice seedling spray test; conditions: adults, after 72 hours, read-out: mortality in comparison with untreated controls
Procedure: Four to five-week old rice seedlings with cut upper leaf portion were cleaned and washed 24 hours before spraying. The active compounds were formulated in 1:1 acetone:water (vol:vol), and 0.01% vol/vol surfactant (Kinetic) was added. Potted rice seedlings were sprayed with 5-6 ml test solution, air dried, covered with Mylar cages and inoculated with 10 adults. Treated rice plants were kept at about 28-29° C. and relative humidity of about 50-60%. Percent mortality was recorded after 72 hours.

O=C(Nc1ncc(F)cc1F)c1cc(OC2=NOC(c3cc(Cl)c(F)c(Cl)c3)(C(F)(F)F)C2)ccc1Cl (centres unmarked) [II-8, 2-chloro-5-[[5-(3,5-dichloro-4-fluoro-phenyl)-5-(trifluoromethyl)-4H-isoxazol-3-yl]oxy]-N-(3,5-difluoro-2-pyridyl)benzamide]
≥ 75%: mortality at 300 ppm (Tetranychus kanzawai) | mortality at 2500 ppm (Myzus persicae) | mortality at 300 ppm (Plutella xylostella) | mortality at 2500 ppm (Heliothis virescens) | mortality at 2500 ppm (Anthonomus grandis) | mortality at 300 ppm (Dichromothrips corbetti) | mortality at 300 ppm (Bemisia argentifolii) | mortality at 300 ppm (Nephotettix virescens)

Source: patent US12595239B2, “Substituted isoxazoline derivatives” (BASF SE, priority 2021, dated 2026)
